Common to all, as to assay type: functional, cell-based
Settings in all cases: Mus musculus

Assay [1] concerns L1210. As to the kind of experiment: Effective concentration for growth inhibition of L1210 cells in culture in the presence of 10 uM of dThd.
Assay [2] concerns S49. As to the kind of experiment: Effective concentration for growth inhibition of S49 cells in culture in the presence of 10 uM of dUrd.
Assay [3] relates to L1210. As to the kind of experiment: Effective concentration for growth inhibition of L1210 cells in culture in the presence of 10 uM of dUrd.
Assay [4] has as its system S49. As to the kind of experiment: Effective concentration to inhibit growth of S49 cells in culture.
Assay [5] has as its system L1210. As to the kind of experiment: Effective concentration to inhibit growth of L1210 cells in culture.

Structures are written as SMILES.

Turning to `O=c1[nH]c(=O)n([C@H]2C[C@H](O)[C@@H](CO)O2)cc1[N+](=O)[O-]`, the EC50 in assay [1] was more than 3000 nM; in assay [2], 60 nM; in assay [3], 120 nM; in assay [4], 30 nM; in assay [5], 33 nM.

The values above are taken from ChEMBL document CHEMBL1122177, “Mechanism of action of 5-nitro-2'-deoxyuridine” (J Med Chem, 1982).
